Results on 3 molecules are retold here after paper PMC11856932, “Aeromonas hydrophila CobQ is a new type of NAD^+- and Zn^2+-independent protein lysine deacetylase” (eLife, 2025).

Common to all, as to type: biochemical
Experiment [1] concerns the target T1, AhCobB (Aeromonas hydrophila, UniProt A0KKN9).
T1 construct: gene cobB; recombinant, pET-21b/32a vector, E. coli BL21(DE3), Ni-NTA purified
T1 sequence (A0KKN9 1-257): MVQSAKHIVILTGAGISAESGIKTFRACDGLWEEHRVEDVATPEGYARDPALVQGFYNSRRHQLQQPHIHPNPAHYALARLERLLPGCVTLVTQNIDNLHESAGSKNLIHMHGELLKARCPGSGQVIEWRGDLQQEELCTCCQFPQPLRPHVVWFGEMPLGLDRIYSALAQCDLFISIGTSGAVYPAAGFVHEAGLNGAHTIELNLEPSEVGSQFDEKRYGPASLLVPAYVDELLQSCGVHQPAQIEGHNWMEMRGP
Briefly: deacetylation of Kac-BSA, anti-Kac western blot. The conditions noted are these: 0.25 mM NAD+ as co-substrate; 150 mM Tris-HCl pH 8.0, 10% glycerol, 37 °C, 3 h. For orientation: In western blotting, separated proteins are transferred to a membrane and probed.

In the next experiment the target is T2, ICD (Aeromonas hydrophila, UniProt A0KI74).
T2 construct: recombinant, pET-21b vector, E. coli BL21(DE3), Ni-NTA purified; non-acetylated form
T2 sequence (A0KI74 1-417): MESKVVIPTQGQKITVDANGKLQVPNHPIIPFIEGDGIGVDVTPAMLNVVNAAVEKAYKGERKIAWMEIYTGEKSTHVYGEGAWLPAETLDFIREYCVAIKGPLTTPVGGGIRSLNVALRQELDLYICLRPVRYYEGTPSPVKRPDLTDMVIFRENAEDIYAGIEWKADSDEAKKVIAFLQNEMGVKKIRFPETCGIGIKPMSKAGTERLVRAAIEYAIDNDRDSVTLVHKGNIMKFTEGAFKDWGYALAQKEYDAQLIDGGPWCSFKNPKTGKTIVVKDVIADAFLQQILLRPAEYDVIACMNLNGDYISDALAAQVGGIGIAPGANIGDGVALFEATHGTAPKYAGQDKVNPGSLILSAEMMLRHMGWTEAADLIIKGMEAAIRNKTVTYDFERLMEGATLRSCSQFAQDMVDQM
The experiment is described as follows: NADPH formation, absorbance at […] nm. The conditions noted are these: 0.5 mM NADP, 1.5 mM isocitrate, 3 mM MgCl2, 100 mM Tris-HCl pH 8.0, 10% glycerol.

Experiment [2] addresses T1, AhCobB. Briefly: deacetylation of Kac-BSA, anti-Kac western blot. The conditions noted are these: 0.5 mM NAM; 150 mM Tris-HCl pH 8.0, 10% glycerol, 37 °C, 3 h; inhibitor.

Consider `NC(=O)c1ccc[n+]([C@@H]2O[C@H](COP(=O)(O)OP(=O)(O)OC[C@H]3O[C@@H](n4cnc5c(N)ncnc54)[C@H](O)[C@@H]3O)[C@@H](O)[C@H]2O)c1` [NAD^+], for which the “deacetylation of Kac-BSA, anti-Kac western blot” value on AhCobB [1] was “AhCobB and AhAcuC significantly deacetylated Kac-BSA in the presence of NAD^+ or Zn2 ^+ buffer”.

Take `NC(=O)c1ccc[n+]([C@@H]2O[C@H](COP(=O)(O)OP(=O)(O)OC[C@H]3O[C@@H](n4cnc5c(N)ncnc54)[C@H](OP(=O)(O)O)[C@@H]3O)[C@@H](O)[C@H]2O)c1` [NADP^+]: the “NADPH formation, absorbance at 340 nm” value at ICD is listed as “The enzymatic activity of ICD was detected by measuring the amount of NADPH generated”.

Turning to `NC(=O)c1cccnc1` [nicotinamide], the inhibition result on AhCobB [2] is on record as “the KDAC activity of AhCobB was inhibited when the sirtuin inhibitor nicotinamide (NAM) was added”.
